Here are results for 13 molecules from ChEMBL document CHEMBL1909046, “DrugMatrix in vitro pharmacology data”.

For assay [1], the target named is T1, Calcitonin receptor (Homo sapiens, UniProt P30988).
T1 sequence (P30988 whole entry): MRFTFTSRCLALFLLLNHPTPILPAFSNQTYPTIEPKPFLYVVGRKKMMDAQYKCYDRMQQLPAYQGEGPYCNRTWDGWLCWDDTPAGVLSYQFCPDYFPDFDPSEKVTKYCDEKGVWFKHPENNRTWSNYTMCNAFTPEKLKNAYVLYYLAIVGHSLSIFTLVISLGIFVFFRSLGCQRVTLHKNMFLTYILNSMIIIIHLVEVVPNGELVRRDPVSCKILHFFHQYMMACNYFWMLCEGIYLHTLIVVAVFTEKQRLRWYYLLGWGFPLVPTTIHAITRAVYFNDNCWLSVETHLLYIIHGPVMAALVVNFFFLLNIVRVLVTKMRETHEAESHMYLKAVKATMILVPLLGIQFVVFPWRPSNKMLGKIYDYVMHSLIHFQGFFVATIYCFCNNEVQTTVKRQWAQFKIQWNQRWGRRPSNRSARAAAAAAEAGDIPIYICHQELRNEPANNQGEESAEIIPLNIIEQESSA
The assay is classed as cell membranes, Membrane. Particulars: t47d.

The target in assay [2] is 5-hydroxytryptamine receptor 6 (Homo sapiens, UniProt P50406). The assay is classed as cell membranes, HeLa, Membrane.
5-hydroxytryptamine receptor 6, sequence (P50406 whole entry): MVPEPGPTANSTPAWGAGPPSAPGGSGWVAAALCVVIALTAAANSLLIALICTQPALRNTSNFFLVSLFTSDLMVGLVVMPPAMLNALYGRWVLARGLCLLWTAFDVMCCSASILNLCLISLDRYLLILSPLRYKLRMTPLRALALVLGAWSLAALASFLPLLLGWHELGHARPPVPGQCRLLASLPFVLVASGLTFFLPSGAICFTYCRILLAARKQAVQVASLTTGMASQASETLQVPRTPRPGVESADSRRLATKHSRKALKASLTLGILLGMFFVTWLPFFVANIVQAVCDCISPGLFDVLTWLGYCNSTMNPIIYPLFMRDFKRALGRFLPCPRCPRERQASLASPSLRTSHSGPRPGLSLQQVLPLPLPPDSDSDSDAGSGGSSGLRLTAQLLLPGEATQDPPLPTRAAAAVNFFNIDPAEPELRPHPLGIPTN
The target of assay [3] is T2, Endothelin-1 receptor (Homo sapiens, UniProt P25101).
T2 sequence (P25101 whole entry): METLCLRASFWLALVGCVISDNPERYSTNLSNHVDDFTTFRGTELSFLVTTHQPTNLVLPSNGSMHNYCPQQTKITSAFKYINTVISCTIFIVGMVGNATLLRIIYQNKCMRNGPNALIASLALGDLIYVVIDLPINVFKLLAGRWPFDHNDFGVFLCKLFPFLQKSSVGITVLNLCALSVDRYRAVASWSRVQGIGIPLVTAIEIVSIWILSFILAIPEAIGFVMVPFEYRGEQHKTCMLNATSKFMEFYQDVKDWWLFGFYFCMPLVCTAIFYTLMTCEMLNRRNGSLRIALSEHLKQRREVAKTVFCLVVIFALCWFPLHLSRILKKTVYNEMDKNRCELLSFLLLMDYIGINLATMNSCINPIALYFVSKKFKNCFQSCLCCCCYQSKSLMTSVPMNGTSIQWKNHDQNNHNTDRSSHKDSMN
The assay is classed as cell membranes, Membrane. To be noted: cho-k1.

The target in assay [4] is Glycine receptor (Rattus norvegicus, UniProt P22771+P24524+P07727+P20781). The assay is classed as cell membranes, Wistar, Spinal cord, Membrane.
In assay [5] the target is T3, Leukotriene C4 synthase (Cavia porcellus, UniProt A6XA80).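 Further: enzyme inhibition assay of leukotriene C4 synthase, using LTA4 as the substrate.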
T3 sequence (A6XA80 whole entry): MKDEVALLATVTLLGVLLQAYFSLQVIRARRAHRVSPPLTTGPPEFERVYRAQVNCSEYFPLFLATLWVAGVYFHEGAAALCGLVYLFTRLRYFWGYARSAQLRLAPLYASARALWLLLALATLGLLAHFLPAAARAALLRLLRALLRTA
Kind of assay: biochemical. The assay is classed as tissue-based, Lung.

Assay [6] concerns the target T4, Neuropeptide Y receptor type 1 (Homo sapiens, UniProt P25929).
T4 sequence (P25929 whole entry): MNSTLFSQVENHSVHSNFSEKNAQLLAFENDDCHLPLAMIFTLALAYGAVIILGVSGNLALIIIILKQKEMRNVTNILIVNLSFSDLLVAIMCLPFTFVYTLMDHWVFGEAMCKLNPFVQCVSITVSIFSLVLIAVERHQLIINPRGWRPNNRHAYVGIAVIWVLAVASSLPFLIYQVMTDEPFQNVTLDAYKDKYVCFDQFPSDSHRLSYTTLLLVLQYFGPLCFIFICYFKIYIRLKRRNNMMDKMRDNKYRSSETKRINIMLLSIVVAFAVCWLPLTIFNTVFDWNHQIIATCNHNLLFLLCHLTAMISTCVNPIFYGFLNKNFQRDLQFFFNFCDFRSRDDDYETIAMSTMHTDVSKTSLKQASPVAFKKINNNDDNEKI
The assay is classed as cell membranes, Membrane. Particulars: sk-n-mc.

Assay [7] has as its target Nitric oxide synthase 1 (Rattus norvegicus, UniProt P29476). The assay is classed as tissue-based, Cerebellum.
Assay [8] has as its target Matrix metalloproteinase-9 (Homo sapiens, UniProt P14780). The assay is classed as cell-based.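 Further: inhibition of isolated MMP-9 enzyme activity toward a synthetic peptide substrate, from the DrugMatrix protease screening panel.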
Further: in other assays of this panel Not Active means under 50% inhibition at 10 µM.

Matrix metalloproteinase-9, sequence (P14780 whole entry): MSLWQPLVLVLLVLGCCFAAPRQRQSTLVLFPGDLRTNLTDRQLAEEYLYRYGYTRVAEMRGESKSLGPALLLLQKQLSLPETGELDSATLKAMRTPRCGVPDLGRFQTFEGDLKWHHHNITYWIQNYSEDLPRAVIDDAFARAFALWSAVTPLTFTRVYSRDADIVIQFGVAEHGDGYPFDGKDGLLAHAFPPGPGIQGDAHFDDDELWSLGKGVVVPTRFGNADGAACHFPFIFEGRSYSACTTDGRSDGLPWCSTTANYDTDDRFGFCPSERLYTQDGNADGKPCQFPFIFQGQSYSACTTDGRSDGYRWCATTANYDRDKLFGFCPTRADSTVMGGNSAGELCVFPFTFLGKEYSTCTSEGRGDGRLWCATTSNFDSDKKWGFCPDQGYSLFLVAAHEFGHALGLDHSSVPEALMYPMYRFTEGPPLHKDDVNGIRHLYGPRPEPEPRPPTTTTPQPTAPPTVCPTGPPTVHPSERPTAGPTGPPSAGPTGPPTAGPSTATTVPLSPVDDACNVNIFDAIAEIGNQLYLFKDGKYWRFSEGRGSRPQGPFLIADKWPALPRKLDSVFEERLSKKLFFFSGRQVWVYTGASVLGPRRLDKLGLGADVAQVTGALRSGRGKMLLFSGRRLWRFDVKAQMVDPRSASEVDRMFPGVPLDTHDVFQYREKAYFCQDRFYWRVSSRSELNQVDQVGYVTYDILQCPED
Nitric oxide synthase 1, sequence (P29476 whole entry): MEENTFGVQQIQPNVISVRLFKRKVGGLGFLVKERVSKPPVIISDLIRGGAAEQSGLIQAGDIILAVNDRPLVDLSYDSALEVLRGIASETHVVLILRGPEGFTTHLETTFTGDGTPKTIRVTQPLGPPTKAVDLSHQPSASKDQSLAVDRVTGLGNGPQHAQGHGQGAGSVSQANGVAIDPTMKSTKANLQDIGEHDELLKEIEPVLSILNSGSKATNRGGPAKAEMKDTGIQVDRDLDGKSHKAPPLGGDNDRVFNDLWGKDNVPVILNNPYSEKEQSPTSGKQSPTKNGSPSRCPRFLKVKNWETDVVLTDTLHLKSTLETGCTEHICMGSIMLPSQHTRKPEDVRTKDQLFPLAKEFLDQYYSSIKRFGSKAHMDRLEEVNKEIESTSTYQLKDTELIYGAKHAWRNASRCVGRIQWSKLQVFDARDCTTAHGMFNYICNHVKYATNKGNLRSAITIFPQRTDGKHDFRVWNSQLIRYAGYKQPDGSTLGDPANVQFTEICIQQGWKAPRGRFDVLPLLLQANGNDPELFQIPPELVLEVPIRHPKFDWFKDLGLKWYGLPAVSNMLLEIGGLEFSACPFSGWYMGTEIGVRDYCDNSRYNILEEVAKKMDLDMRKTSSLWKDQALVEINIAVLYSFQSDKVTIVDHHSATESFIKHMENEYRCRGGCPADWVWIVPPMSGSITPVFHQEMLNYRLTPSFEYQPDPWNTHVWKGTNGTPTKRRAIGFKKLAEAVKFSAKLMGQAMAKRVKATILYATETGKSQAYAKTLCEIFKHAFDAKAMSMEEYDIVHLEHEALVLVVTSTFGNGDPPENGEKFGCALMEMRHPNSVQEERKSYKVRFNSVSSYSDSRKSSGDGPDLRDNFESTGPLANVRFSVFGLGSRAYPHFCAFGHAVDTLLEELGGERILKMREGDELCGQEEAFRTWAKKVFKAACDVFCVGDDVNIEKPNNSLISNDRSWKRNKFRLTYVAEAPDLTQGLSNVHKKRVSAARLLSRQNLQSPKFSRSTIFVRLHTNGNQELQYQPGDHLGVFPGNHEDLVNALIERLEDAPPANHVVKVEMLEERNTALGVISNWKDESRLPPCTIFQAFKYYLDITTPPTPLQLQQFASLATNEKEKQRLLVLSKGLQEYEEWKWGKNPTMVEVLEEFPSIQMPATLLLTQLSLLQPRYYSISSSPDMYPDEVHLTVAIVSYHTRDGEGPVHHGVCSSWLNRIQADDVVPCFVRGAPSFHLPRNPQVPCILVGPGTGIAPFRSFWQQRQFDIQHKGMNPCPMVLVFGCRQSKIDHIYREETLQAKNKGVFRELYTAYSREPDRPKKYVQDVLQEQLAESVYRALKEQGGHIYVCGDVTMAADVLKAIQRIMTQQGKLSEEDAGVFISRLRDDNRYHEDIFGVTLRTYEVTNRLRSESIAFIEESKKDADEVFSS

As to `CC(=O)O[C@]1(C(C)=O)CC[C@H]2[C@@H]3C[C@H](C)C4=CC(=O)CC[C@]4(C)[C@H]3CC[C@@]21C` [MEDROXYPROGESTERONE ACETATE], the half-inhibitory concentration (IC50) result in assay [1], in assay [2] (hela), in assay [3], in assay [4], in assay [5] and in assay [6] was “Not Active” throughout. For the same molecule, the half-inhibitory concentration (IC50) entry in assay [7] and in assay [8] was “Not Active” throughout.
With `CC1(C)[C@H](C(=O)O)N2C(=O)C[C@H]2S1(=O)=O` [SULBACTAM], the IC50 result in assay [1], in assay [2] (hela), in assay [3], in assay [4], in assay [5] and in assay [6] was “Not Active” in each case. For the same molecule, the concentration for half-maximal inhibition (IC50) entry in assay [7] and in assay [8] was “Not Active” throughout.
`O=C(O)c1cc(/N=N/c2ccc(S(=O)(=O)Nc3ccccn3)cc2)ccc1O` [SULFASALAZINE]: the half-inhibitory concentration (IC50) entry in assay [1], in assay [2] (hela), in assay [3], in assay [4], in assay [5] and in assay [6] was “Not Active” in each case. Moreover, the IC50 result in assay [7] and in assay [8] was “Not Active” each time.
Turning to `CCN(CC)CCNC(=O)c1cc(Cl)c(N)cc1OC` [METOCLOPRAMIDE], the half-inhibitory concentration (IC50) entry in assay [1], in assay [2] (hela), in assay [3], in assay [4], in assay [5] and in assay [6] was “Not Active” each time. In addition, the IC50 result in assay [7] and in assay [8] was “Not Active” each time.
As to `COC(=O)Nc1nc2ccc(C(=O)c3ccccc3)cc2[nH]1` [MEBENDAZOLE], the IC50 result in assay [1], in assay [2] (hela), in assay [3], in assay [4], in assay [5] and in assay [6] was “Not Active” each time. The half-maximal inhibitory concentration (IC50) entry in assay [7] and in assay [8] was “Not Active” each time.
In the case of `Cc1ccnc(NS(=O)(=O)c2ccc(N)cc2)n1` [SULFAMERAZINE], the IC50 result in assay [1], in assay [2] (hela), in assay [3], in assay [4], in assay [5] and in assay [6] was “Not Active” each time. Further, the IC50 result in assay [7] and in assay [8] was “Not Active” in each case.
`Cc1cccc(C)c1NC(=O)C(C)N` (stereo not given) [TOCAINIDE]: the half-inhibitory concentration (IC50) entry in assay [1], in assay [2] (hela), in assay [3], in assay [4], in assay [5] and in assay [6] was “Not Active” throughout. Moreover, the IC50 result in assay [7] and in assay [8] was “Not Active” each time.
Turning to `CC#C[C@]1(O)CC[C@H]2[C@@H]3CCC4=CC(=O)CCC4=C3[C@@H](c3ccc(N(C)C)cc3)C[C@@]21C` [MIFEPRISTONE], the IC50 entry in assay [1], in assay [2] (hela), in assay [3], in assay [4], in assay [5] and in assay [6] was “Not Active” in each case. Further, the IC50 entry in assay [7] and in assay [8] was “Not Active” in each case.
As to `C[C@]12CCC(=O)C[C@@H]1CC[C@@H]1[C@@H]2CC[C@]2(C)[C@@H](O)CC[C@@H]12` [STANOLONE], the IC50 result in assay [1], in assay [2] (hela), in assay [3], in assay [4], in assay [5] and in assay [6] was “Not Active” in each case. Moreover, the IC50 result in assay [7] and in assay [8] was “Not Active” each time.
For `C1CCN2C[C@@H]3C[C@@H](CN4CCCC[C@@H]34)[C@H]2C1` [SPARTEINE], the IC50 entry in assay [1], in assay [2] (hela), in assay [3], in assay [4], in assay [5] and in assay [6] was “Not Active” in each case. Moreover, the IC50 result in assay [7] and in assay [8] was “Not Active” throughout.
As to `CO[C@@H]1[C@@H](OC)[C@H](C)[C@@](O)(CC(=O)O)O[C@H]1[C@H](C)[C@H]1O[C@@]2(CC[C@@](C)([C@H]3CC[C@@](C)([C@@H]4O[C@@H]([C@H]5O[C@](C)(O)[C@H](C)C[C@@H]5C)C[C@@H]4O[C@@H]4C[C@H](OC)[C@@H](OC)[C@H](C)O4)O3)O2)C[C@H](O)[C@H]1C.N` [MADURAMICIN], the IC50 entry in assay [1], in assay [2] (hela), in assay [3], in assay [4], in assay [5] and in assay [6] was “Not Active” throughout. The IC50 entry in assay [7] and in assay [8] was “Not Active” in each case.
As to `CC(N)C12CC3CC(CC(C3)C1)C2` (stereo not given) [RIMANTADINE], the 50% inhibitory concentration (IC50) entry in assay [1], in assay [2] (hela), in assay [3], in assay [4], in assay [5] and in assay [6] was “Not Active” throughout. Further, the IC50 result in assay [7] and in assay [8] was “Not Active” throughout.
As to `CCN(CC)C(=S)SSC(=S)N(CC)CC`, the half-maximal inhibitory concentration (IC50) result in assay [1] was “Not Active”; in assay [2] (read-out: IC50) it was 16 µM; in assay [3] it was “Not Active”; in assay [4], “Not Active”; in assay [5], “Not Active”; in assay [6], “Not Active”. Moreover, the IC50 entry in assay [7] and in assay [8] was “Not Active” in each case. Besides, the inhibition constant Ki in assay [2] (read-out: Ki) worked out at 7.43 µM.
